These results are taken from patent US20250376481A1, “POLYCYCLIC CARBAMOYL PYRIDONE DERIVATIVE, PREPARATION METHOD THEREFOR AND PHARMACEUTICAL COMPOSITION THEREOF” (NANJING AIDEA PHARMACEUTICAL TECHNOLOGY CO., LTD., priority 2021, published 2025).

Data set [1] is described as follows: Oil-water partition coefficient (n-octanol / pH 7.4 phosphate buffer). The note with it: n-octanol / pH 7.4 phosphate buffer, pH 7.4; read-out: Log D (pH 7.4). The data set is classed as physicochemical. How it is done:
• a) To a 5 mL glass bottle was added 1 mL n-octanol and 1 mL pH 7.4 phosphate buffer, respectively. • b) The compound was added to a DMSO solution to prepare a compound stock solution with a concentration of 10 mM, and then 20 μL compound stock solution was added to the mixture solution of n-octanol and phosphate buffer. • c) Shaken at room temperature for 1 hour at a rate of 300/minute. • d) Kept for 30 minutes, and after the solution was completely layered, the upper and lower layers of the solution were taken separately to a 96 well deep well plate, and LC-MS/MS was used for detection via injection. • e) The aliquots of 1-octanol and aqueous solution were diluted consecutively with DMSO to obtain the final sample for LC-MS/MS analysis. Three consecutive dilutions were carried on every 1-octanol phase with covering a concentration range of 2500 fold. Every final aqueous phase was diluted consecutively twice with covering a concentration range of 100 fold. The MS peak areas of these solutions were used to generate log (peak area) based on the log (relative concentration) calibration line.
[formula] • Coct=sample concentration in n-octanol • Caq=sample concentration in pH 7.4 phosphate buffer

Data set [2] is described as follows: PK test of compounds (mouse). In kind it is in vivo, ICR mice. How it is done: The mice were not fed until 5 pm on the day before administration, and fasted overnight with water. The mice in Group IV were administered with 2 mg/kg, while those in Group PO were administered with 10 mg/kg. Feeding was resumed 2 hours after administration. For mice administered by gavage, 20 μL blood was collected from the saphenous vein in calf before administration and 0.25, 0.5, 1, 2, 4, 8, and 24 hours after administration, respectively, and placed in EDTA-K2 anticoagulant blood collection tubes, and then the blood would be placed on ice until centrifuged to obtain plasma samples. The plasma samples were centrifuged at 4° C. (3500 rpm, 10 min), and after separation, the samples were transferred to EP tubes and stored at −80° C. for detection. For mice admistrated by intravenous injection, 20 μL blood was collected from the saphenous vein in calf before administration and 0.0833, 0.25, 0.5, 1, 2, 4, 8 and 24 hours after administration, respectively, and placed in EDTA-K2 anticoagulant blood collection tubes, and then the blood would be placed on ice until centrifuged to obtain a plasma sample. The plasma samples were centrifuged at 4° C. (3500 rpm, 10 min), and after separation, the samples were transferred to EP tubes and stored at −80° C. for detection. The level of tested compounds in blood plasma of mice, who had orally administrated with different concentrations of drugs were determinated: 10 μL mouse blood at each time point after administration was taken, 100 μL methanol containing an internal standard (100 ng/mL) was added, vortex mixed for 1 minute, centrifuged at 4° C. (12000 rmp, 5 minutes), and 1 μL supernatant was taken from the plasma samples for LC-MS/MS analysis.

The half-life is how long it takes for the measured level to halve. As a reminder, the bioavailability is the share of a dose that reaches the circulation, judged against a reference dose that is usually intravenous. Consider `C[C@H]1N2C(=O)c3c(O)c(=O)c(C(=O)NCc4ccc(F)cc4F)cn3C[C@@H]2OCC12CC2` [Compound 1], for which the logD in data set [1] was found to be 2.2. Also, the “bioavailability (in words)” value in data set [2] (PK test in mice) is listed as “good bioavailability”. Moreover, the half-life in data set [2] (male, mouse, plasma, ICR mice, PO 10 mg/kg) is 4.37 ± 0.47 h. The bioavailability in data set [2] (male, mouse, plasma, ICR mice, PO 10 mg/kg (IV 2 mg/kg)) is 57%.
